Experimental data as given in patent US20240299349A1, “TREATMENT OR PREVENTION OF LEUKAEMIA” (VESTLANDETS INNOVASJONSSELSKAP AS, priority 2019, published 2024).

Legend:
MOLM-13 cell line = test: WST-1 cell viability assay, 24 hours treatment, MOLM-13; type: cell-based, human; conditions: MOLM-13, 24 hours; for cytotoxicity / %-viability: 0.001-100 μM, WST-1; for cell survival dose/response curve in the mitochondria metabolism assay (WST-1): FIG. 1
Procedure: (§1) The cell lines HL60 and MOLM-13 were treated with the various compounds for 24 hours. The cell viability assay WST-1 was used to determine the cytotoxic effect and to generate the dose-response curves and IC50 values.
(§2) The two human cell lines HL60 and MOLM-13 reflect the aggressive blood cancer acute myeloid leukaemia (AML). These cell lines (obtained from the American Type Culture Collection, ATCC) were cultured in RPMI 1640, 2 mM L-Glutamine, 50 UmL^−1 penicillin/streptomycin (Sigma Aldrich) and 10% fetal bovine serum (Biowest) and incubated in humidified atmosphere at a temperature of 37° C. under 5% CO2. The cells (2×10^5 cells×mL^−1) were treated with various concentrations (0.001 μM→100 μM) of the compounds for a period of 24 hours. Metabolic cell activity (i.e. cell viability) was measured using the WST-1 cell proliferation agent (Roche) and read on a […] plate reader (Infinite 200 Pro, Tecan). Selected cell samples were analysed after nuclear staining with Hoechst to determine apoptotic nuclear fragmentation.

HL60 cell line = test: WST-1 cell viability assay, 24 hours treatment, HL60; type: cell-based, human; conditions: HL60, 24 hours; for cytotoxicity / %-viability: 0.001-100 μM, WST-1; for cell survival dose/response curve in the mitochondria metabolism assay (WST-1): FIG. 1
Procedure: as §1, §2

SMILES | cytotoxicity / %-viability (MOLM-13 cell line) | cell survival dose/response curve in the mitochondria metabolism assay (WST-1) (MOLM-13 cell line) | cytotoxicity / %-viability (HL60 cell line) | cell survival dose/response curve in the mitochondria metabolism assay (WST-1) (HL60 cell line) | melting point [°C]
COc1c(C)c(OC)c([N+](=O)[O-])c(-c2ccccc2)c1O [Compound 7, 3,5-dimethoxy-4-methyl-6-nitrobiphenyl-2-ol] | minor decrease in %-viability | more limited dose/response curves | minor decrease in %-viability | more limited dose/response curves | 102.7
COc1cccc(-c2c(O)c(OC)c(C)c(OC)c2[N+](=O)[O-])c1 [Compound 7a, 3,3′,5-trimethoxy-4-methyl-6-nitro-[1,1′-biphenyl]-2-ol] | – | rapid decrease in cell survival | – | rapid decrease in cell survival | –
COc1c(C)c(OC)c(O)c(-c2ccccc2)c1N [Compound 8, 6-amino-3,5-dimethoxy-4-methyl-[1,1′-biphenyl]-2-ol] | substantial drop in %-viability | rapid decrease in cell survival | substantial drop in %-viability | rapid decrease in cell survival | –
COc1cccc(-c2c(N)c(OC)c(C)c(OC)c2O)c1 [Compound 8a, 6-amino-3,3′,5-trimethoxy-4-methyl-[1,1′-biphenyl]-2-ol] | – | rapid decrease in cell survival | – | rapid decrease in cell survival | –
COc1c(C)c(OC)c(OC(C)=O)c(-c2ccccc2)c1NC(C)=O [Compound 9, 6-acetamido-3,5-dimethoxy-4-methyl-(1,1′-biphenyl)-2-yl acetate] | weaker cytotoxicity | more limited dose/response curves | weaker cytotoxicity | more limited dose/response curves | –
COc1cccc(-c2c(NC(C)=O)c(OC)c(C)c(OC)c2OC(C)=O)c1 [Compound 9a, 6-acetamido-3,3′,5-trimethoxy-4-methyl-(1,1′-biphenyl)-2-yl acetate] | – | more limited dose/response curves | – | more limited dose/response curves | –
COc1c(C)c(OC)c2c(c1OC(C)=O)c1ccccc1n2C(C)=O [Compound 10, 9-acetyl-1,3-dimethoxy-2-methyl-9H-carbazol-4-yl acetate] | did not show any influence on the cytotoxicity | rapid decrease in cell survival | did not show any influence on the cytotoxicity | rapid decrease in cell survival | –
COc1c(C)c(OC)c2[nH]c3ccccc3c2c1O [Compound 11, 1,3-dimethoxy-2-methyl-9H-carbazol-4-ol] | major cytotoxicity | rapid decrease in cell survival | major cytotoxicity | rapid decrease in cell survival | –
COC1=C(C)C(=O)c2[nH]c3ccccc3c2C1=O [Compound 12, 3-methoxy-2-methyl-1-carbazole-1,4 (9H)-dione] | – | more limited dose/response curves | – | more limited dose/response curves | –
COC1=C(C)C(C)(O)c2[nH]c3ccccc3c2C1=O (stereo not drawn) [Compound 13, 1-hydroxy-3-methoxy-1,2-dimethyl-1,9-dihydro-4H-carbazol-4-one, reference compound] | not to exhibit cytotoxicity | more limited dose/response curves | not to exhibit cytotoxicity | more limited dose/response curves | –
